From patent US8673913B2, “SHP-2 phosphatase inhibitor” (Case Western Reserve University, priority 2009, dated 2014)

Target: T1, GST-LAR PTP domain (PTPRF) (Homo sapiens, UniProt P10586)
T1 construct: GST-LAR PTP domain purchased from Biomol International; purchased Biomol International, L.P. (Plymouth Meeting, Pa.)
T1 sequence (P10586 1352-1607 limits assumed): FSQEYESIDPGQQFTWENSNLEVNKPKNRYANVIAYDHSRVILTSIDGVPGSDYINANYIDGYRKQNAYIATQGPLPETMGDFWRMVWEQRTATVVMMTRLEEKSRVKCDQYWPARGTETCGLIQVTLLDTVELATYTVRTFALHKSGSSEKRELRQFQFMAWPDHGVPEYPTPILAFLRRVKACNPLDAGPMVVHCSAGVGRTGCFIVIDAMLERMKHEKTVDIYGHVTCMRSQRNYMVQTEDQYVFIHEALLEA
Experiment: in vitro phosphatase assay, LAR
Assay type: biochemical
Experimental: Candidate compounds were screened using the in vitro protein tyrosine phosphatase (PTP) assay kit (Sigma, St. Lois, Mo.). […] The assay determines free phosphate generated by dephosphorylation of the PTP substrate using the Malachite Green reagent. Briefly, 0.5 μg of GST-SHP-2 PTP was incubated in 40 μL assay buffer (25 mM Tris-HCl, PH7.4, 50 mM NaCl, 5 mM DTT, and 2.5 mM EDTA) with test compounds at various concentrations or DMSO at room temperature for 30 min. The PTP substrate was then added to a final concentration of 0.2 mM. The system was incubated at 30° C. for 30 min. Finally, 50 μl of Malachite Green solution was added and OD620 was measured after 5 min. In the phosphatase assays for SHP-1, CD45, TC-PTP, PTP-MEG2 (PTPN9), and LAR (PTPRF), procedures were similar, with the exception that GST-SHP-1, GST-CD45 cytoplasmic domain, GST-TC-PTP, GST-PTP-MEG2 PTP domain, and GST-LAR PTP domain purchased from Biomol International, L.P. (Plymouth Meeting, Pa.) were used instead as the enzymes.

IC50: 144 µM
Structure (SMILES): Cc1cc(C)c2[nH]c3nc(SCC(=O)Nc4cccc5ccccc45)nnc3c2c1 [#324]
